According to patent US20260038709A1 (priority 2020, published 2026):
Read-outs that look alike come from different tables or passages of the source.

How the values were obtained:
[1] = in vivo; cited from earlier work
Vapor pressure = assay type: physicochemical; details: 20° C.
Boiling point = assay type: physicochemical
[2] = Explosion limits of CF3OCFCF2 / CO2 / O2 (triangular diagram)
Source text: In this case, the straight line AB may be a straight line connecting point A and point B, the straight line BC may be a straight line connecting point B and point C, the straight line CA may be a straight line connecting point C and point A, and in the point A, (x, y, z) may be (50, 0, 50), in the point B, (x, y, z) may be (5.1, 0, 94.9), and in the point C, (x, y, z) may be (8.2, 80, 11.8). Unlike the case above, when (x, y, z) is present in the triangle ABC (explosion triangle) composed of the points A, B, and C, there may be an explosion hazard due to flammability.
In FIG. 7, the explosion limits indicate the explosion limit line, and is a line connecting the explosion limit points (filled square points). On the other hand, no ignition (hollow rectangle points) indicates a non-ignition point.
In addition, point A in the triangular diagram of FIG. 7 represents upper flammability limit (UFL), and when point A is connected to point C, which is an end point on the explosion limit line, a straight line AC, which is an expected explosion limit (expected line), is formed. […] Meanwhile, the ICR line on the triangle diagram is tangent to the explosion triangle passing through 100% of O2, and the MXC value is 9.3% (C3F6O in CO2).

[3] = Acute inhalation toxicity (LC50 4 h); assay type: in vivo; details: inhalation for 4 hours, pure gas
[4] = Lower flammability limit (LFL) calculation, KS B ISO 10156: 2017 combustible gas standard; details: mixed gas of CF3OCFCF2 and CO2, by mixing ratio of CF3OCFCF2; calculation results
Source text: Meanwhile, insulating gases used in electric devices that insulate electricity or extinguish arc are not supposed to belong to the category of combustible gases.
The calculation results of the lower flammability limit (LFL) according to the mixing ratio of the mixed gas of CF3OCFCF2 and CO2 are shown in the following table. In this case, the lower flammability limit is a concentration range in which flame propagation may take place when a combustible gas is mixed with air and ignited, expressed in volume concentration (vol %), and refers to the lowest value in this volume concentration.

[5] = Reactivity test with electrodes during dielectric strength test; details: room temperature, 1 atm, insulation test chamber
Source text: In this case, the reactivity test was to determine a reaction with electrodes upon testing dielectric strength for each mixing ratio of the insulating gases in an enclosed space where no external gas was not allowed to enter (insulation test chamber), at R.T. (room temperature), and at a standard atmospheric pressure of 1 atm. In this case, materials of a sphere electrode are CuCr and Wcu, and materials of a plane electrode are CuCr and SUS.

[6] = Acute inhalation toxicity (LC50 4 h) of mixed gas based on KS B ISO 10298: 2012; details: mixed gas of CF3OCFCF2 and CO2, mixing ratio mol %
Experimental: The mixed gas of the present invention may have a GWP of 1 or less, 0.9 or less, or 0.85 or less. In addition, the mixed gas of the present invention may have a GWP of 0.29 to 1, 0.29 to 0.9, or 0.29 to 0.85. […] In this case, a method for calculating GWP was based on Regulation (EU) NO 517/2014, and LC50, which represents lethal concentration 50% upon inhalation for 4 hours, was based one KS B ISO 10298: 2012.

| Structure (SMILES) | Acute inhalation toxicity (LC50 4 h) [1] | Vapor pressure (Vapor pressure) | Boiling point (Boiling point) | Ignition ([2]; C3F6O 8.6, CO2 82.5, O2 8.9 mol %) | Ignition ([2]; C3F6O 8.8, CO2 85.0, O2 6.2 mol %) | MXC value ([2]; C3F6O in CO2) | Upper flammability limit (UFL), point A, C3F6O ([2]; CO2 0, O2 50 mol %) | Explosion limit (LEL), C3F6O ([2]; CO2 0.0, O2 94.9 mol %) | Explosion limit, C3F6O ([2]; CO2 30.0, O2 64.3 mol %) | Explosion limit, C3F6O ([2]; CO2 50.0, O2 43.4 mol %) | Explosion limit, C3F6O ([2]; CO2 60.0, O2 33.0 mol %) | Explosion limit, C3F6O ([2]; CO2 70.0, O2 22.4 mol %) | Explosion limit, C3F6O ([2]; CO2 80.0, O2 11.8 mol %, point of tangency of ICR line) | Acute inhalation toxicity (LC50 4 h) [3] | Lower flammability limit (LFL) [4] | Reaction with electrodes [5] | LC50 4 h [6] |
| --- | --- | --- | --- | --- | --- | --- | --- | --- | --- | --- | --- | --- | --- | --- | --- | --- | --- |
| N#CC(F)(C(F)(F)F)C(F)(F)F [(CF3)2CFCN, heptafluoroisobutyronitrile] | 10,000-15,000 ppmv | 36.7 psia | −4.7 °C |  |  |  |  |  |  |  |  |  |  |  |  |  |  |
| FC(F)=C(F)OC(F)(F)F [CF3OCFCF2, trifluoromethyl trifluorovinyl ether] |  | 70.3 psia | −29 °C | No ignition confirmed at 8.6% C3F6O | No ignition confirmed at 8.8% C3F6O | 9.3% | 50 mol % | 5.1 mol % | 5.7 mol % | 6.6 mol % | 7.0 mol % | 7.6 mol % | 8.2 mol % | 10,000-15,000 ppmv | 7.5 vol % | reacted with electrodes at atmospheric pressure to form a carbon film | 15,000 ppmv |
| FS(F)(F)(F)(F)F [SF6] |  | 334 psia | −63.7 °C |  |  |  |  |  |  |  |  |  |  | 100,000~ ppmv |  |  |  |
